Here are results for nine compounds from patent US4245107A, “Cephalosporin derivatives and process for preparing the same” (Asahi Kasei Kogyo Kabushiki Kaisha, priority 1974, dated 1981).

What all share (format): cell-based
In assay [1] the test system is Klebsiella pneumoniae, ATCC 10031. Nature of the assay: MIC against Klebsiella pneumoniae ATCC 10031.
For assay [2], the system named is Staphylococcus aureus, ATCC 6538 P. Nature of the assay: MIC against Staphylococcus aureus ATCC 6538 P.
In assay [3] the test system is Salmonella enteritidis gaertner. Nature of the assay: MIC against Salmonella enteritidis gaertner.
A further assay concerns Shigella sonnei E 33. Nature of the assay: MIC against Shigella sonnei E 33.
The next assay deals with Escherichia coli, NIHJ. Nature of the assay: MIC against Escherichia coli NIHJ.
For the next assay, the system named is Proteus rettgeri, ACR. Nature of the assay: MIC against Proteus rettgeri ACR. The conditions noted are these: for MIC: Providencia rettgeri.
The next assay relates to Pseudomonas aeruginosa. Nature of the assay: MIC against Pseudomonas aeruginosa (strain not given).
The subject of assay [4] is Staphylococcus aureus, MS 27. Nature of the assay: MIC against Staphylococcus aureus MS 27.
A further assay deals with Escherichia coli, W 3630. Nature of the assay: MIC against Escherichia coli W 3630.
The subject of assay [5] is Gram-positive bacteria and Gram-negative bacteria. Nature of the assay: antimicrobial / bacterium-inhibiting activity (in words).
The next assay relates to Escherichia coli, RGN 14. Nature of the assay: MIC against Escherichia coli RGN 14. The conditions noted are these: Table 3.
In another assay the test system is Proteus vulgaris, OX 19. Nature of the assay: MIC against Proteus vulgaris OX 19. The following applies: for minimum inhibitory concentration (MIC): Table 3.
A further assay deals with Enterobacter 0655. Nature of the assay: MIC against Enterobacter 0655.
For assay [6], the system named is Pseudomonas aeruginosa, IAM 1095. Nature of the assay: MIC against Pseudomonas aeruginosa IAM 1095.
For assay [7], the system named is Escherichia coli, RGN 238. Nature of the assay: MIC against Escherichia coli RGN 238. The following applies: Table 3.
[8] abbreviates: Table 3, read-out: minimum inhibitory concentration (MIC).
The mark [9] stands for this setting: Table 1, read-out: minimum inhibitory concentration (MIC).

SMILES strings stand for the structures. Values after ≈ are worked out from the molar mass of the structure shown. Like-named read-outs stand apart in the source and are kept apart here.

For `CC(=O)OCC1=C(C(=O)O)N2C(=O)C(NC(=O)C[S+]([O-])c3cccs3)C2SC1` (single isomer, unassigned) [Comparative Example, 7-(2-thienylsulfinylacetamido)cephalosporanicacid, reference compound], the “minimum inhibitory concentration (MIC)” value in assay [1] (Table 1) turned out to be 6.3 µg/mL (≈ 14.2 µM); in assay [2] (Table 1, ATCC 6538 P) it was 1.6 µg/mL (≈ 3.6 µM); in assay [3] (Table 1), 12.5 µg/mL (≈ 28.1 µM); in the assay with Shigella sonnei E 33 (Table 1) it was 25 µg/mL (≈ 56.2 µM); in the assay on Escherichia coli, NIHJ (Table 1), 6.3 µg/mL (≈ 14.2 µM); in the assay with Proteus rettgeri, ACR (Table 1), 100 µg/mL (≈ 225 µM). The “minimum inhibitory concentration (MIC)” value in the assay on Pseudomonas aeruginosa (Table 1) was determined as 100 µg/mL (≈ 225 µM); in assay [4] (Table 1, ATCC MS 27), 6.3 µg/mL (≈ 14.2 µM); in the assay on Escherichia coli, W 3630 (Table 1), 50 µg/mL (≈ 112 µM).
In the case of `CC1=C(C(=O)O)N2C(=O)C(NC(=O)C[S+]([O-])c3cccs3)[C@H]2SC1` (stereo partly drawn) [Example 7, 7-(2-thienylsulfinylacetamido)-3-methyl-3-cephem-4-carboxylic acid], the microbial activity result in [5] (versus product from 2-thienylsulfinylacetic acid having a negative specific rotary power) was “much superior”.
Turning to `CC(=O)OCC1=C(C(=O)O)N2C(=O)C(NC(=O)C[S+]([O-])c3ccccc3)C2SC1` (single isomer, unassigned) [Example 19, 7-(phenylsulfinylacetamido)cephalosporanic acid], the “minimum inhibitory concentration (MIC)” value was found to be 1.6 in [1] (Table 3); 0.2 in assay [2] (Table 3, 6538 P); 3.2 in [3] (Table 3); 6.3 in the assay on Shigella sonnei E 33 (Table 3); 12.5 in the assay on Escherichia coli, RGN 14; 1.6 in the assay with Proteus vulgaris, OX 19. The “minimum inhibitory concentration (MIC)” value in the assay on Escherichia coli, NIHJ (Table 3) stood at 1.6; in [4] (Table 3, MS 27), 0.8. Besides, the MIC with Enterobacter 0655 (setting [8]) turned out to be 100 µg/mL (≈ 228 µM); with Proteus rettgeri, ACR (setting [8]) it was 100 µg/mL (≈ 228 µM); in assay [6] (IAM1095, Table 3, read-out: minimum inhibitory concentration (MIC)) it was 100 µg/mL (≈ 228 µM).
Take `CC(=O)OCC1=C(C(=O)O)N2C(=O)C(NC(=O)C[S+]([O-])c3cccs3)C2SC1` (single isomer, unassigned) [Example 1, 7-(2-thienylsulfinylacetamido)cephalosporanic acid]: the “minimum inhibitory concentration (MIC)” value in assay [1] (Table 1) stood at 0.8 µg/mL (≈ 1.8 µM); in assay [3] (Table 1), 1.6 µg/mL (≈ 3.6 µM); in the assay with Shigella sonnei E 33 (Table 1), 3.1 µg/mL (≈ 6.97 µM); with Escherichia coli, NIHJ (Table 1), 1.6 µg/mL (≈ 3.6 µM); in assay [4] (Table 1, ATCC MS 27), 1.6 µg/mL (≈ 3.6 µM). Also, the MIC is 0.8 µg/mL (≈ 1.8 µM) in assay [2] (ATCC6538, Table 1, ATCC 6538 P, read-out: minimum inhibitory concentration (MIC)); 100 µg/mL (≈ 225 µM) in the assay with Proteus rettgeri, ACR (setting [9]); 100 µg/mL (≈ 225 µM) in the assay on Pseudomonas aeruginosa (setting [9]).
On to `CC(=O)OCC1=C(C(=O)O)N2C(=O)C(NC(=O)C[S+]([O-])c3ccncc3)C2SC1` (stereo not drawn) [Example 10, 7-(4pyridylsulfinylacetamido)cephalosporanic acid], for which the MIC in [1] (ATCC10031, Table 2) came out at 0.8 µg/mL (≈ 1.82 µM); in [2] (ATCC6538, Table 2, ATCC 6538 P, read-out: MIC), 0.4 µg/mL (≈ 0.91 µM); in [3] (Salmonella enterica, ENTERITIDIS, Table 2), 3.2 µg/mL (≈ 7.28 µM); with Shigella sonnei E 33 (Shigella sonnei, E33, Table 2), 6.3 µg/mL (≈ 14.3 µM); in the assay on Proteus vulgaris, OX 19 (OX19, Table 2) it was 1.6 µg/mL (≈ 3.64 µM); against Escherichia coli, NIHJ (Table 2), 0.8 µg/mL (≈ 1.82 µM). The MIC with Proteus rettgeri, ACR (Table 2, read-out: MIC) was found to be 100 µg/mL (≈ 228 µM); in assay [4] (MS27, Table 2, MS 27), 1.6 µg/mL (≈ 3.64 µM); with Escherichia coli, W 3630 (W3630, Table 2), 12.5 µg/mL (≈ 28.4 µM).
Turning to `O=C(C[S+]([O-])c1cccs1)NC1C(=O)N2C(C(=O)[O-])=C(C[n+]3ccccc3)CSC12` (stereo not drawn) [Example 6, 7-(2-thienylsulfinylacetamido)-3-(1-pyridiniummethyl)-3-cephem-4-carboxylate], in assay [5], the antimicrobial activity entry is recorded as “excellent”.
For `Cc1nnc(SCC2=C(C(=O)O)N3C(=O)C(NC(=O)C[S+]([O-])c4cccs4)[C@H]3SC2)s1` (stereo partly drawn) [Example 3, 7-(2-thienylsulfinylacetamido)-3-(5-methyl-1,3,4-thiadiazol-2-ylthiomethyl)-3-cephem-4-carboxylic acid], the “minimum inhibitory concentration (MIC), in words” value in [5] (versus product similarly derived from the compound of the Comparative Example) is given as “much superior”.
Regarding `Cn1nnnc1SCC1=C(C(=O)[O-])N2C(=O)C(NC(=O)C[S+]([O-])c3cccs3)[C@H]2SC1.[Na+]` (stereo partly drawn) [Example 4, sodium 7-(2-thienylsulfinylacetamido)-3-(1-methyl-1H-tetrazol-5-ylthiomethyl)-3-cephem-4-carboxylate], in assay [5] (versus product derived in the same manner from 2-thienylsulfinylacetic acid having [α]D^22° of -9.2°), the bacterium-inhibiting activity result was “much superior”.
On to `CC(=O)OCC1=C(C(=O)O)N2C(=O)C(NC(=O)C[S+]([O-])c3ccccc3)C2SC1` (single isomer, unassigned) [comparative product, 7-(Phenylsulfinylacetamido)cephalosporanic acid, reference compound], for which the “minimum inhibitory concentration (MIC)” value in [1] (Table 3) amounted to 50; in assay [2] (Table 3, 6538 P) it was 25; in [3] (Table 3), 50; in the assay with Shigella sonnei E 33 (Table 3), 100; in assay [7], 100; in the assay with Escherichia coli, RGN 14 it was 100. Also, the “minimum inhibitory concentration (MIC)” value in the assay with Proteus vulgaris, OX 19 was 100; with Escherichia coli, NIHJ (Table 3) it was 100; in the assay on Enterobacter 0655 (Table 3), 100; with Proteus rettgeri, ACR (Table 3), 100; in assay [6] (Table 3), 100; in [4] (Table 3, MS 27), 50. Moreover, in the assay with Escherichia coli, W 3630 (Table 3), the “minimum inhibitory concentration (MIC)” value came out at 100.
